Key:
mGluR5 (GRM5) = test: HEK 293 cells mGluR5-luciferase reporter assay (β-arrestin2 recruitment); type: cell-based, human; details: 1 mM, 16-hours incubation
Description: The methodology was previously described by Kroeze (Kroeze et al. (2015). PRESTO-Tango as an open-source resource for interrogation of the druggable human GPCRome. Nat. Struct. Mol. Biol. 22(5): 362) and the principle is illustrated in FIG. 19. Briefly, the cells of HEK293 cell line are transfected with 3 types of plasmids:
Plasmid 1: encodes fusion GRMS-tTA protein. The linker between GRMS and tTA is sensitive to TEV-protease (www.addgene.org/66390/).
Plasmid 2: encodes β-arrestin2/TEV-protease fusion protein (www.addgene.org/107245/).
Plasmid 3: luciferase tTA reporter (www.addgene.org/64127/).
Sufficient quantities of fusion proteins were produced during 24 hours after transfection. mGluR5 (GRM5) activation by a selective agonist CHPG (SEQ ID NO: 18) (1) leads to recruiting of β-arrestin2/TEV-protease fusion protein (2), that cleaves the linker between GRM5 and tTA (3). Released tTA transcription factor (4) binds with its consensus sites in tTA luciferase reporter plasmid (5) that results in activation of luciferase expression. The activity of luciferase can be used to estimate the activity of mGluR5, and application of negative allosteric modulators of mGluR5 should lead to a dose-dependent decrease in luciferase activity in this system (FIG. 19).
Sufficient quantities of the plasmids were produced using standard applications before the experiment. HEK293 cells were co-transfected with three plasmids using polyethylenimine (PEI, 408727, Sigma-Aldrich, USA) 24 hours prior to agonists application. Transfected cells were treated with agonists/antagonists and incubated overnight (16 hours). Antagonists were introduced 10 minutes prior to agonists. Luciferase test was performed using Promega™ Luciferase Assay Systems Kit (PR-E1500, Promega, USA) according to the manufacturer's protocol.
CHPG—orthosteric selective mGlu5 receptor agonist (HB0033, HelloBio, USA). […]

BALB/C mice [1] = test: Porsolt Forced Swim test (two-day modification), mice; type: in vivo
Description: (§1) After an adaptation period, the test substance was intraperitoneally injected into mice. Behavioral parameters were measured in 30 minutes after injection. No more than one test was performed per day. The tests were administered as follows: day 1—the Open field test, day 8—the Elevated plus maze test, days 15-16—the Porsolt Forced Swim (two-day modification) test.
As part of this modification, two tests were carried out within two days. The installation is a transparent cylinder, 30 cm high, 10 cm in diameter and filled with water (water temperature 21° C.-23° C.) to a mark at a height of 25 cm. On the first day, each animal was dropped into the cylinder for 10 minutes. Behavioral parameters were not recorded. The animals are dropped into the cylinder for ten minutes again on the second day. The duration of active (vigorous movements with all paws) and passive (weak strokes with hind legs) swimming, as well as immobility (immobilization) (Porsolt et al. (1977). Behavioral despair in mice: a primary screening test for antidepressants. Arch Int Pharmacodyn Ther, 229(2), 327-336) are recorded. After each test the mice are placed in a heated cage until dry. The behavior indicators in this test are processed using the Real Timer Program developed by NPK “OpenScience” LLC, Russia. The sequence of events and their duration were recorded as well as basic statistical data processing was conducted.

zebrafish (Danio rerio) [2] = test: Novel Tank (NT) test; type: in vivo
Description: (§2) The tested substances were injected into the zebrafish intraperitoneally using an insulin syringe (0.5 ml, 30 g) 10 minutes before the test (15 min before for ketamine only, according to the literature data). The saline solution (0.9% NaCl) was used as a solvent. Anesthesia and immobilization of the animals were achieved by placing them in water at a temperature of 10° C. Control group fish received intraperitoneal injections of an equivalent volume of solvent, also after going through a pre-cooling procedure.
A base, back, and side walls of the aquarium were made of matte black plastic; the front panel (shorter wall) was made of transparent Plexiglas.
(§3) The Novel Tank (NT) test was performed as previously described (Maximino et al. (2013). Behavioral and neurochemical changes in the zebrafish leopard strain. G2B. 12(5): 576-582). A video recording (background shooting) was started 20-30 seconds before the zebrafish were placed in the test aquarium. The experimental zebrafish was placed in the tank using a net. The recording was being conducted for 5 minutes. The test was carried out using EthoVision XT software package (Noldus, Wageningen, Netherlands). The software registered the distance covered by the animal, its speed, the number of visits to the three conventional zones of the aquarium: “bottom,” “center,” and […] (lower, middle, and upper thirds of the aquarium, respectively), the time spent in these zones, and the latency of a visit to the middle and to the surface of the aquarium.

zebrafish (Danio rerio) [3] = test: Light/Dark Box (LDB) test; type: in vivo
Description: as §2
The setup for the Light/Dark preference test consisted of three main parts: a launch compartment, a light compartment made of white plastic, and a dark compartment made of black plastic. The bright lighting in these tests was provided by a lamp on a stand (LED lamp PL, 11 W, light flux≈600 Lm, about 500 Lx directly above the water surface), which was attached to the upper part of the aquarium.
(§4) The light/dark box (LDB) test was performed as previously described (Maximino et al. (2011). Pharmacological analysis of zebrafish (Danio rerio) scototaxis. Prog. Neuro-Psychopharmacol. Biol. Psychiatry. 35(2): 624-631). The zebrafish was placed in a light compartment of an LDB using a net, the camera was switched on simultaneously, and the behavior of the zebrafish was recorded for 5 minutes. The video was processed using RealTimer (OpenScience). During the processing of records, the residence time and the number of visits to the light and dark compartments of the test setup were recorded, as well as the latent period of visiting both compartments.

zebrafish (Danio rerio) [4] = test: Overall behavioral effect in zebrafish (NT and LDB tests); type: in vivo
Description: as §2, §3, §4

BALB/C mice [5] = test: Open Field test, mice; type: in vivo
Description: Eighty male BALB/C mice were used as subjects in this example. Body weight of each specimen at the beginning of the experiment was between about 18 grams and about 20 grams. All animals were free from species-specific pathogens (specific pathogen free (SPF) status according to the Federation of European Laboratory Animal Science Associations (FELASA) list, 2014). The animals were kept in conditions of free access to water and food. The room was air-conditioned (exchange rate not less than 15 r/h) with a 12 h:12 h light-dark cycle (lights on at 09:00 am), air temperature 20-24°±2° C. (possible fluctuations of the limits no more than 2° C. per day), 30-70% humidity. For the study, the mice were separated into six different groups and the tested substances were administered to the groups as shown in Table 1. Drugs were daily prepared in fresh saline, according to the dosage. For intranasal administration (i.n.), a volume of 20 μl was used, for intraperitoneal (i.p.)—200 μl.
as §1
The test is an arena with a diameter of 63 cm, illuminated by bright light (500 Lx). Recorded parameters: total distance traveled (in cm), time spent moving (at a speed of more than five cm/s), time spent immobile (at a speed of less than 0.2 cm/s), average and maximum velocity, the number of episodes of motor activity and freezing. The same set of parameters, as well as the latent period and the time spent are recorded for the central sector. Defecation, rears (setting the animal on its hind legs) are evaluated visually. The test is designed to assess the level of motor and exploratory activity.

BALB/C mice [6] = test: Elevated Plus Maze test, mice; type: in vivo; details: for behavior in EPM: 1 mg/kg i.p.
Description: as §1
The test consists of two closed and two open arms located opposite each other (arm length 30 cm). The height of the sides of the closed arms is 15 cm. The entire installation is raised 70 cm above the floor. Open arms have a bright uniform illumination of 400 lux, closed −30-40 lux. The animal is placed in the center of the maze, with its head facing an open arm. Within five minutes, the Noldus EthoVision XT program (for behavior tracking) automatically records the following behavior parameters: total distance traveled (in cm), time spent moving (at a speed of more than five cm/s), time spent immobile (at a speed of less than 0.2 cm/s), average and maximum velocity, the number of episodes of mobility, and freezing. The same set of parameters, as well as the latent period and the time spent, are recorded for the central sector, the open and closed arms separately.

[7] = 10 mg/kg i.p., 30 minutes after injection

Compound: NC(C(=O)O)c1cc(O)ccc1Cl (stereo not shown) [CHPG]
- luciferase signal (mGluR5 activation) (mGluR5 (GRM5)): significant induction of luciferase signal

Compound: COCCCC/C(=N\OCCN)c1ccc(C(F)(F)F)cc1 [FA, Fluvoxamine]
- time of active swimming (BALB/C mice [1]; 20 mg/kg i.p.): 103.5 ± 15.1 s
- time spent immobile (BALB/C mice [1]; 20 mg/kg i.p.): 229 ± 19.8 s

Compound: CNC1(c2ccccc2Cl)CCCCC1=O (stereo not shown) [ketamine, reference compound]
- distance travelled (zebrafish (Danio rerio) [2]; 20 mg/kg i.p.): tendency towards increased distance travelled
- latency to the top of the NT (zebrafish (Danio rerio) [2]; 20 mg/kg i.p.): did not alter
- time spent at the top of the tank (zebrafish (Danio rerio) [2]; 20 mg/kg i.p.): significant increase
- time spent in the middle+top of the aquarium (zebrafish (Danio rerio) [2]; 20 mg/kg i.p.): significant increase
- velocity (zebrafish (Danio rerio) [2]; 20 mg/kg i.p.): increased velocity
- behavior in LDB test (zebrafish (Danio rerio) [3]; 20 mg/kg i.p.): only trends towards significant differences
- overall behavioral effect in Danio rerio (zebrafish (Danio rerio) [4]; 20 mg/kg i.p.): anxiolytic-like responses

Compound: AGAS: tetrapeptide AGAS, best combinatorial tetrapeptide according to the score values
- behavior in NT test (zebrafish (Danio rerio) [2]; 1 mg/kg i.p.): didn't show any prominent effects
- behavior in NT test (zebrafish (Danio rerio) [2]; 5 mg/kg i.p.): didn't show any prominent effects
- velocity (zebrafish (Danio rerio) [2]; 10 mg/kg i.p.): greater velocity
- time spent at the top of the tank (zebrafish (Danio rerio) [2]; 20 mg/kg i.p.): decreased time spent at the top of the aquarium
- velocity (zebrafish (Danio rerio) [2]; 20 mg/kg i.p.): trend towards significant reduction of velocity
- behavior in LDB test (zebrafish (Danio rerio) [3]; 1 mg/kg i.p.): didn't show any prominent effects
- behavior in LDB test (zebrafish (Danio rerio) [3]; 5 mg/kg i.p.): didn't show any prominent effects
- latency to enter the light compartment (zebrafish (Danio rerio) [3]; 10 mg/kg i.p.): decreased latency to enter the light compartment
- number of transitions between compartments of LDB (zebrafish (Danio rerio) [3]; 10 mg/kg i.p.): increased number of transitions between compartments
- behavior in LDB test (zebrafish (Danio rerio) [3]; 20 mg/kg i.p.): no differences between experimental and control groups
- overall behavioral effect in Danio rerio (zebrafish (Danio rerio) [4]; 1 mg/kg i.p.): did not affect the behavior
- overall behavioral effect in Danio rerio (zebrafish (Danio rerio) [4]; 5 mg/kg i.p.): did not affect the behavior
- overall behavioral effect in Danio rerio (zebrafish (Danio rerio) [4]; 10 mg/kg i.p.): prominent anxiolytic-like activity
- overall behavioral effect in Danio rerio (zebrafish (Danio rerio) [4]; 20 mg/kg i.p.): anxiogenic-like or sedative effect
- number of center entries (BALB/C mice [5]; [7]): 19.3±3
- freezing time (BALB/C mice [6]; 10 mg/kg i.p.): 38.7 ± 9.6 s
- number of rears on the closed arms (BALB/C mice [6]; 10 mg/kg i.p.): 10.2±2.9
- distance travelled (BALB/C mice [6]; [7]): 973±78.7 cm
- behavior in FST (BALB/C mice [1]; 10 mg/kg i.p.): did not affect the behavior

Compound: AYFE: tetrapeptide chosen as a negative control [reference compound]
- behavior in NT test (zebrafish (Danio rerio) [2]; 1 mg/kg i.p.): did not alter the behavior
- distance travelled (locomotor activity) (zebrafish (Danio rerio) [2]; 10 mg/kg i.p.): attenuation of locomotor activity
- behavior in LDB test (zebrafish (Danio rerio) [3]; 1 mg/kg i.p.): did not alter the behavior
- behavior in LDB test (zebrafish (Danio rerio) [3]; 10 mg/kg i.p.): did not differ from control values
- overall behavioral effect in Danio rerio (zebrafish (Danio rerio) [4]; 1 mg/kg i.p.): did not show behavioral effects
- overall behavioral effect in Danio rerio (zebrafish (Danio rerio) [4]; 10 mg/kg i.p.): produced sedation
- time spent in the center (BALB/C mice [5]; 1 mg/kg i.p., 30 minutes after injection): 59.96±22.4
- behavior in EPM (BALB/C mice [6]): didn't affect the behavior
- time spent active swimming (BALB/C mice [1]; 1 mg/kg i.p.): increased
- time spent immobile (BALB/C mice [1]; 1 mg/kg i.p.): decreased

Compound: DSGH: combinatorial tetrapeptide with the best occurrence and the LOGO analysis
- behavior in NT test (zebrafish (Danio rerio) [2]; 0.5 mg/kg i.p.): did not produced any behavioral effects
- behavior in NT test (zebrafish (Danio rerio) [2]; 10 mg/kg i.p.): did not affect the behavioral parameters
- number of transitions to light (zebrafish (Danio rerio) [3]; 0.5 mg/kg i.p.): decreased number of transitions to light
- time spent in the light compartment (zebrafish (Danio rerio) [3]; 0.5 mg/kg i.p., trend p<0.1): decreased time spent in the light compartment
- time spent in the light compartment (zebrafish (Danio rerio) [3]; 1 mg/kg i.p.): trend towards increased time spent in the light compartment
- latency to enter the light (zebrafish (Danio rerio) [3]; 1 mg/kg i.p., trend p<0.10): decreased latency to enter the light
- behavior in LDB test (zebrafish (Danio rerio) [3]; 10 mg/kg i.p.): did not affect the behavioral parameters
- overall behavioral effect in Danio rerio (zebrafish (Danio rerio) [4]; 0.5 mg/kg i.p.): anxiogenic-like effect
- overall behavioral effect in Danio rerio (zebrafish (Danio rerio) [4]; 1 mg/kg i.p.): potent anxiolytic-like effect
- overall behavioral effect in Danio rerio (zebrafish (Danio rerio) [4]; 10 mg/kg i.p.): failed to produce any behavioral changes
- behavioral parameters in Open Field test (BALB/C mice [5]; 1 mg/kg i.p.): did not cause any changes of the behavioral parameters
- behavior in EPM (BALB/C mice [6]): did not cause any changes of the behavioral parameters
- behavioral parameters in FST (BALB/C mice [1]; 1 mg/kg i.p.): did not cause any changes of the behavioral parameters

— patent US20230140798A1, “SYNTHETIC PEPTIDES DIRECTED AGAINST THE METABOTROPIC GLUTAMATE RECEPTOR 5” (Lactocore, Inc., priority 2020, published 2023)
